The values that follow come from patent publication US20240034736A1, “HSD17B13 INHIBITORS AND USES THEREOF” (FL2022-001, Inc., priority 2020, published 2024).

Where only a bound is given, the exact number is not on record here.

The target of one assay is Recombinant human HSD17B13 enzyme (Homo sapiens (Human), UniProt Q7Z5P4). Kind of assay: HSD17b13 NAD(P)H-Glo Biochemical Assay. The settings on record: 50 uM estradiol, 1 mM NAD+; read-out: HSD17β13 IC50. The method, boiled down: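 Recombinant human HSD17B13 was pre-incubated with inhibitor for 20 min at RT in 20 mM Tris pH 7.4 with 0.002% Tween-20 and 0.02% BSA. Reaction then ran with 50 uM estradiol and 1 mM NAD+ (final) for 3 h at 37° C. NADH formed was detected by NAD(P)H-Glo luminescence after 1 h at RT.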
Recombinant human HSD17B13 enzyme, sequence (Q7Z5P4 20-300): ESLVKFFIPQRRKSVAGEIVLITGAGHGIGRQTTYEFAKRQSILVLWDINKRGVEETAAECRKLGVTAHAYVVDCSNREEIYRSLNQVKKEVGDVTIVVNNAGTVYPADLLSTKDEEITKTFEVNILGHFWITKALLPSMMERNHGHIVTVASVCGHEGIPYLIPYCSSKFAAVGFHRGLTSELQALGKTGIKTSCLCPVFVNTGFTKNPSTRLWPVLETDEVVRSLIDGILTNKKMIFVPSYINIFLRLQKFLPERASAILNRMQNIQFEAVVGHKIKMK
As for `CS(=O)(=O)N1CCN(c2cc3cnn(-c4cc(O)ccc4C#N)c3cn2)CC1` [Compound 19.41, 4-Hydroxy-2-(5-(4-(methylsulfonyl)piperazin-1-yl)-1H-pyrazolo[3,4-c]pyridine-1-yl)benzonitrile], the IC50 fell in the range of 1000 to 30000 nM.

Turning to `Cc1ccc(-n2ncc3cc(N4CCN(S(C)(=O)=O)CC4)ncc32)c(F)c1O` [Compound 19.42, 2-Fluoro-6-methyl-3-(5-(4-(methylsulfonyl)piperazin-1-yl)-1H-pyrazolo[3,4-c]pyridine-1-yl)phenol], the IC50 was in the range of 1000 to 30000 nM. The same measure, in the same setting: in the case of `Cc1nn(-c2cc(C(F)(F)F)c(F)c(O)c2F)c2cnc(N3CCOCC34CC4)cc12` [Compound 19.44, 2,6-Difluoro-3-(3-methyl-5-(7-oxa-4-azaspiro[2.5]octan-4-yl)-1H-pyrazolo[3,4-c]pyridine-1-yl)-5-(trifluoromethyl)phenol] it was less than 100 nM; in that of `Cc1nn(-c2cc(C(F)(F)F)c(F)c(O)c2F)c2cnc(N3CCN(S(C)(=O)=O)CC3)cc12` [Compound 19.45, 2,6-Difluoro-3-(3-methyl-5-(4-(methylsulfonyl)piperazin-1-yl)-1H-pyrazolo[3,4-c]pyridine-1-yl)-5-(trifluoromethyl)phenol], 100 to 1000 nM. On the same count and under the same terms, in the case of `CS(=O)(=O)N1CCN(c2cc3cn(-c4cc(O)c(F)c(C(F)(F)F)c4)nc3cc2Cl)CC1` [Compound 19.46, 5-(6-Chloro-5-(4-(methylsulfonyl)piperazin-1-yl)-2H-indazol-2-yl)-2-fluoro-3-(trifluoromethyl)phenol] it was less than 100 nM; in that of `Cc1nn(-c2cc(C(F)(F)F)c(F)c(O)c2F)c2cnc(N(C)C3CCOCC3)cc12` [Compound 19.47, 2,6-Difluoro-3-(3-methyl-5-(methyl(tetrahydro-2H-pyran-4-yl)amino)-1H-pyrazolo[3,4-c]pyridin-1-yl)-5-(trifluoromethyl)phenol], less than 100 nM. The same measure, in the same setting: in the case of `Cc1nn(-c2cc(C(F)(F)F)c(F)c(O)c2F)c2ccc(N3CCOCC34CC4)nc12` [Compound 19.48, 2,6-Difluoro-3-(3-methyl-5-(7-oxa-4-azaspiro[2.5]octan-4-yl)-1H-pyrazolo[4,3-b]pyridine-1-yl)-5-(trifluoromethyl)phenol] it was 100 to 1000 nM; in that of `Cc1nn(-c2cc(C(F)(F)F)c(F)c(O)c2F)c2ccc(N(C)C3CCOCC3)nc12` [Compound 19.49, 2,6-Difluoro-3-(3-methyl-5-(methyl(tetrahydro-2H-pyran-4-yl)amino)-1H-pyrazolo[4,3-b]pyridine-1-yl)-5-(trifluoromethyl)phenol], less than 100 nM.

`Cc1nn(-c2cc(C(F)(F)F)c(F)c(O)c2F)c2cc(F)c(N3CCOCC34CC4)nc12` [Compound 19.50, 2,6-Difluoro-3-(6-fluoro-3-methyl-5-(7-oxa-4-azaspiro[2.5]octan-4-yl)-1H-pyrazolo[4,3-b]pyridine-1-yl)-5-(trifluoromethyl)phenol]: the IC50 was less than 100 nM. Same read-out and setting: in the case of `COC1CCN(c2cc3c(C)nn(-c4cc(C(F)(F)F)c(F)c(O)c4F)c3cn2)CC1` [Compound 19.51, 2,6-Difluoro-3-(5-(4-methoxypiperidin-1-yl)-3-methyl-1H-pyrazolo[3,4-c]pyridine-1-yl)-5-(trifluoromethyl)phenol] it was 100 to 1000 nM; in that of `COC1CCN(c2cc3c(C)nn(-c4cc(C(F)(F)F)c(F)c(O)c4F)c3cn2)C2(CC2)C1` (stereo not drawn) [Compound 19.52, 2,6-Difluoro-3-(5-(7-methoxy-4-azaspiro[2.5]octan-4-yl)-3-methyl-1H-pyrazolo[3,4-c]pyridine-1-yl)-5-(trifluoromethyl)phenol], less than 100 nM; in that of `Cc1nn(-c2cc(C(F)(F)F)c(F)c(O)c2F)c2cnc(N3CCN(S(C)(=O)=O)CC34CC4)cc12` [Compound 19.53, 2,6-Difluoro-3-(3-methyl-5-(7-(methylsulfonyl)-4,7-diazaspiro[2.5]octan-4-yl)-1H-pyrazolo[3,4-c]pyridine-1-yl)-5-(trifluoromethyl)phenol], less than 100 nM. The same measure, in the same setting: the result for `CCN(c1cc2c(C)nn(-c3cc(C(F)(F)F)c(F)c(O)c3F)c2cn1)C1CCOCC1` [Compound 19.54, 3-(5-(Ethyl(tetrahydro-2H-pyran-4-yl)amino)-3-methyl-1H-pyrazolo[3,4-c]pyridine-1-yl)-2,6-difluoro-5-(trifluoromethyl)phenol] reads less than 100 nM; that for `Cc1nn(-c2cc(C(F)(F)F)c(F)c(O)c2F)c2cnc(N3CCC(Oc4ccccc4)CC3)cc12` [Compound 19.55, 2,6-Difluoro-3-(3-methyl-5-(4-phenoxypiperidin-1-yl)-1H-pyrazolo[3,4-c]pyridine-1-yl)-5-(trifluoromethyl)phenol], 100 to 1000 nM. With `Cc1nn(-c2cc(C(F)(F)F)c(F)c(O)c2F)c2cnc(N3CCN(S(=O)(=O)c4ccccc4)CC3)cc12` [Compound 19.56, 2,6-Difluoro-3-(3-methyl-5-(4-(phenylsulfonyl)piperazin-1-yl)-1H-pyrazolo[3,4-c]pyridine-1-yl)-5-(trifluoromethyl)phenol], the IC50 was less than 100 nM. The same measure, in the same setting: the result for `Cc1nn(-c2cc(C(F)(F)F)c(F)c(O)c2F)c2cnc(N3CCN(S(=O)(=O)c4cnn(C)c4)CC3)cc12` [Compound 19.57, 2,6-Difluoro-3-(3-methyl-5-(4-((1-methyl-1H-pyrazol-4-yl)sulfonyl)piperazin-1-yl)-1H-pyrazolo[3,4-c]pyridin-1-yl)-5-(trifluoromethyl)phenol] reads less than 100 nM; that for `COCCOC1CCN(c2cc3c(C)nn(-c4cc(C(F)(F)F)c(F)c(O)c4F)c3cn2)CC1` [Compound 19.58, 2,6-Difluoro-3-(5-(4-(2-methoxyethoxy)piperidin-1-yl)-3-methyl-1H-pyrazolo[3,4-c]pyridin-1-yl)-5-(trifluoromethyl)phenol], less than 100 nM.

With `Cc1nn(-c2cc(C(F)(F)F)c(F)c(O)c2F)c2cnc(N3CCC(OCC4CC4)CC3)cc12` [Compound 19.59, 3-(5-(4-(Cyclopropylmethoxy)piperidin-1-yl)-3-methyl-1H-pyrazolo[3,4-c]pyridine-1-yl)-2,6-difluoro-5-(trifluoromethyl)phenol], the IC50 was 100 to 1000 nM. For the compound `Cc1nn(-c2cc(C(F)(F)F)c(F)c(O)c2F)c2cnc(N3CCC(OCCN(C)C)CC3)cc12` [Compound 19.60, 3-(5-(4-(2-(Dimethylamino)ethoxy)piperidin-1-yl)-3-methyl-1H-pyrazolo[3,4-c]pyridine-1-yl)-2,6-difluoro-5-(trifluoromethyl)phenol], the 50% inhibitory concentration (IC50) is 100 to 1000 nM. Regarding `Cc1nn(-c2cc(O)c(F)cc2C#N)c2cnc(N(C)C3CCOCC3)cc12` [Compound 19.62, 5-Fluoro-4-hydroxy-2-(3-methyl-5-(methyl(tetrahydro-2H-pyran-4-yl)amino)-1H-pyrazolo[3,4-c]pyridin-1-yl)benzonitrile], the IC50 is 100 to 1000 nM. Same read-out and setting: in the case of `Cc1nn(-c2cc(C(F)(F)F)c(F)c(O)c2F)c2cnc(N3CCN(c4ccccc4)CC3)cc12` [Compound 19.63, 2,6-Difluoro-3-(3-methyl-5-(4-phenylpiperazin-1-yl)-1H-pyrazolo[3,4-c]pyridin-1-yl)-5-(trifluoromethyl)phenol] it was 100 to 1000 nM; in that of `Cc1nn(-c2cc(C(F)(F)F)c(F)c(O)c2F)c2cnc(N3CCN(c4cnn(C)c4)CC3)cc12` [Compound 19.64, 2,6-Difluoro-3-(3-methyl-5-(4-(1-methyl-1H-pyrazol-4-yl)piperazin-1-yl)-1H-pyrazolo[3,4-c]pyridin-1-yl)-5-(trifluoromethyl)phenol], 100 to 1000 nM. The same measure, in the same setting: the result for `Cc1nn(-c2cc(C(F)(F)F)c(F)c(O)c2F)c2cnc(N3CCOCC34CCC4)cc12` [Compound 19.65, 2,6-Difluoro-3-(3-methyl-5-(8-oxa-5-azaspiro[3.5]nonan-5-yl)-1H-pyrazolo[3,4-c]pyridin-1-yl)-5-(trifluoromethyl)phenol] reads less than 100 nM. On the same count and under the same terms, the result for `Cc1nn(-c2cc(C(F)(F)F)c(F)c(O)c2F)c2cc(F)c(N(C)C3CCOCC3)nc12` [Compound 19.66, 2,6-Difluoro-3-(6-fluoro-3-methyl-5-(methyl(tetrahydro-2H-pyran-4-yl)amino)-1H-pyrazolo[4,3-b]pyridin-1-yl)-5-(trifluoromethyl)phenol] reads less than 100 nM; that for `Cc1nn(-c2cc(C(F)(F)F)c(F)c(O)c2F)c2cc(F)c(N3CCOCC34CC4)cc12` [Compound 19.67, 2,6-Difluoro-3-(6-fluoro-3-methyl-5-(7-oxa-4-azaspiro[2.5]octan-4-yl)-1H-indazol-1-yl)-5-(trifluoromethyl)phenol], less than 100 nM. Take `Cc1nn(-c2cc(C(F)(F)F)c(F)c(O)c2F)c2cc(F)c(N(C)C3CCOCC3)cc12` [Compound 19.68, 2,6-Difluoro-3-(6-fluoro-3-methyl-5-(methyl(tetrahydro-2H-pyran-4-yl)amino)-1H-indazol-1-yl)-5-(trifluoromethyl)phenol]: the IC50 is less than 100 nM. The same measure, in the same setting: the result for `Cc1nn(-c2cc(C(F)(F)F)c(F)c(O)c2F)c2ccc(N(C)C3CCOCC3)cc12` [Compound 19.69, 2,6-Difluoro-3-(3-methyl-5-(methyl(tetrahydro-2H-pyran-4-yl)amino)-1H-indazol-1-yl)-5-(trifluoromethyl)phenol] reads less than 100 nM.

Staying with this assay, now noted: read-out: HSD17β13 inhibition at 30 uM.
On to `CS(=O)(=O)N1CCN(c2cc3cn(-c4cccc(O)c4C#N)nc3cn2)CC1` [Compound 19.40, 2-Hydroxy-6-(5-(4-(methylsulfonyl)piperazin-1-yl)-2H-pyrazolo[3,4-c]pyridine-2-yl)benzonitrile], for which the inhibition at 30 µM is 39%. Same read-out and setting: in the case of `Cc1ccc(O)c(F)c1-n1ncc2cc(N3CCN(S(C)(=O)=O)CC3)ncc21` [Compound 19.43, 2-Fluoro-4-methyl-3-(5-(4-(methylsulfonyl)piperazin-1-yl)-1H-pyrazolo[3,4-c]pyridine-1-yl)phenol] it was 45%. On the same count and under the same terms, in the case of `Cc1nn(-c2cc(O)ccc2C#N)c2cnc(N(C)C3CCOCC3)cc12` [Compound 19.61, 4-Hydroxy-2-(3-methyl-5-(methyl(tetrahydro-2H-pyran-4-yl)amino)-1H-pyrazolo[3,4-c]pyridin-1-yl)benzonitrile] it was 55%.

In general, IC50 refers to the midpoint of a concentration-inhibition curve. A word on the inhibition: it is the share of the control response that was lost under treatment.
